How the values were obtained:
total proteins of cells = experiment: HPLC of protein-bound tyrosines (incorporation into cellular proteins); format: cell-based; settings: cells grown on o-Tyr or m-Tyr; n = 5–10
Method: Early passages of mouse embryo fibroblast (3T3-L1) (ATCC, Manassas, VA, US) were cultured in Dulbecco’s modified Eagle medium (DMEM, Sigma Aldrich, Budapest, Hungary, CAT number: D6046; Invitrogen, Waltham, MA, USA, CAT number: 41966-029) supplemented with 100 U/mL penicillin, 0.1 mg/mL streptomycin (Gibco, Budapest, Hungary, CAT number: 15070-063) and 10% heat-inactivated Fetal Bovine Serum (FBS, Gibco, CAT number: 16170-078), supplemented with 398 nM p-, m-, or o-Tyr (equimolar to the original p-Tyr content of the medium) purchased from Sigma (CAT number: para-Tyr: T8566, m-Tyr: T3629, o-Tyr: 93851). Media contained 25 or 5 mmol/L glucose (experiment dependent) pyruvate and L-glutamine. Cells were grown at 37 °C and 5% CO2. Adipocyte differentiation was achieved by DMEM supplemented with 10% FBS (Gibco, Csertex, Budapest, Hungary, CAT number: 10106-169) (FBS) and a […] insulin (Sigma Aldrich, Budapest, Hungary, CAT number: I 9278), […] isobuthylmethylxanthine (Sigma Aldrich, Budapest, Hungary, CAT number: I 5879), and 250 nmol/L dexamethasone (Sigma Aldrich, Budapest, Hungary, CAT number: 861871) containing cocktail. From day 4 onward, cultures were maintained in DMEM containing 1.5 μg/mL insulin and 10% FBS with a medium change every other day until experimental treatments were started. After 90% of the cell population reached the adipocyte phenotype, prior to all treatments, cells were incubated overnight in serum-deprived medium. Experimental treatment was performed in serum-deprived medium containing 200 or 400 nmol/L insulin, for 5 min.
The conditionally immortalized human podocyte cell line (provided by Moin Saleem, University of Bristol, UK) was cultured in RPMI1640 medium (R8756, Sigma Aldrich, Budapest, Hungary) supplemented with 10% heat-inactivated FBS (16170-078, Gibco, Budapest, Hungary), insulin-transferrin-selenium supplement (41400-045, Gibco), 100 U/mL penicillin, 0.1 mg/mL streptomycin (P4333, Sigma), and […] (equimolar to the original p-Tyr content of the medium) para-, meta-, or ortho-Tyr. The cells were grown at 33 °C 5% CO2, and when they reached 40–60% confluency they were transferred to 37 °C to differentiate. Following the thermoswitching, cells were kept on RPMI1640 medium containing 2% FBS, antibiotics, and different tyrosines. Before every treatment, cells were incubated in serum-deprived medium overnight. […]
The total protein-bound cellular tyrosine content was measured by adding 200 μL of distilled water to the samples, followed by freezing overnight at −70 °C to achieve cell lysis. […]

[1] = tested on: GLUT4 and vimentin in podocytes; experiment: Immunofluorescence of GLUT4 and vimentin in insulin-treated podocytes; format: cell-based, human; settings: for GLUT4 membrane localization: 400 nmol/l insulin for 10 min
Method: The conditionally immortalized human podocyte cell line (provided by Moin Saleem, University of Bristol, UK) was cultured in RPMI1640 medium (R8756, Sigma Aldrich, Budapest, Hungary) supplemented with 10% heat-inactivated FBS (16170-078, Gibco, Budapest, Hungary), insulin-transferrin-selenium supplement (41400-045, Gibco), 100 U/mL penicillin, 0.1 mg/mL streptomycin (P4333, Sigma), and […] (equimolar to the original p-Tyr content of the medium) para-, meta-, or ortho-Tyr. The cells were grown at 33 °C 5% CO2, and when they reached 40–60% confluency they were transferred to 37 °C to differentiate. Following the thermoswitching, cells were kept on RPMI1640 medium containing 2% FBS, antibiotics, and different tyrosines. Before every treatment, cells were incubated in serum-deprived medium overnight.
In a 6-well plate, 104 cells were cultured on glass coverslips washed with alcohol and dried under UV light. The podocyte cells were grown in RPMI1640 medium supplemented with 10% heat-inactivated FBS at 33 °C, 5% CO2. When they reached 60% confluence, the medium was changed to RPMI1640 medium containing 2% FBS and 112.05 nM of the different tyrosine isoforms, then the plates were transferred to 37 °C, 5% CO2 to allow the cells to differentiate. The different tyrosine isoforms were added to the maintenance medium. The cells were serum deprived overnight, then incubated with 400 nmol/l insulin for 10 min. After removal of the medium, the coverslips were washed twice with PBS. The cells were fixed at room temperature in 2% paraformaldehyde and 4% sucrose for 8 min, then permeabilized using 0.3% Trion X-100 in 1xPBS for 20 min and blocked in 2.5% BSA for 45 min [45]. The primary antibody was diluted in 1xPBS, and the cells were incubated in it for 60 min in humid conditions. The antibodies we used were mouse anti-WT1 antibody (H-1) (1:100, Santa Cruz Biotechnology, Dallas, TX, USA), chicken anti-vimentin antibody (1:100, Abcam), rabbit anti-glucose transporter GLUT4 antibody (1:100, Abcam, Cambridge, UK), mouse Insulin Receptor Substrate-1 antibody (1:100, Invitrogen, Waltham, MA, USA), and rabbit anti-phospho-Insulin Receptor Substrate-1 (pTyr612) antibody (1:10, Sigma). Coverslips were washed in PBS three times for 5 min in PBS and incubated in the fluorophore-conjugated secondary antibodies anti-goat, anti-chicken, secondary antibody Alexa fluor 647, anti-rabbit Alexa fluor 350, and anti-mouse Alexa Fluor 488 (1:10, Invitrogen) for 60 min. Samples were then washed in PBS three times for 5 min and mounted in Vectashield (Vector Laboratories). Images were taken with a Nikon Eclipse Ti2 microscope.

N[C@@H](Cc1cccc(O)c1)C(=O)O [m-Tyr, meta-tyrosine]
protein-bound o-Tyr/p-Tyr and m-Tyr/p-Tyr ratio (total proteins of cells): increased | protein-bound p-Tyr/Phe ratio (total proteins of cells): either a decrease or remained unchanged | vimentin filaments [1]: thicker vimentin filaments | GLUT4 membrane localization [1]: slightly visible

NC(Cc1ccccc1O)C(=O)O (centres unmarked) [o-Tyr, ortho-tyrosine]
protein-bound o-Tyr/p-Tyr and m-Tyr/p-Tyr ratio (total proteins of cells): increased | protein-bound p-Tyr/Phe ratio (total proteins of cells): either a decrease or remained unchanged | vimentin filaments [1]: thicker vimentin filaments | GLUT4 membrane localization [1]: not characteristic in o-Tyr treated cells, which shows rather a perinuclear localization

Source: publication PMC9138545, “Incorporation of Oxidized Phenylalanine Derivatives into Insulin Signaling Relevant Proteins May Link Oxidative Stress to Signaling Conditions Underlying Chronic Insulin Resistance” (Biomedicines, 2022)
